Measurements taken from patent US11760766B2, “Ionic liquids containing quaternary ammonium and phosphonium cations, and their use as environmentally friendly lubricant additives” (UT-Battelle, LLC, priority 2020, dated 2023).
Like-named read-outs stand apart in the source and are kept apart here.

Tests used:
Ceriodaphnia dubia = settings: in vivo
[1] = Solubility of ILs in base oils, by centrifuging the oil-additive blends; settings: centrifuged 13,000 rpm 5 min

Compound | Survival rate of Daphnia (Ceriodaphnia dubia) | Total reproductive output (number of neonates) in surviving Daphnia (Ceriodaphnia dubia) | also measured
tributyl(methyl)ammonium dibutyl phosphate [[N4441][DBP]] | – | – | Mortality / survival of Daphnia, in words (Ceriodaphnia dubia): did not cause any mortality
CCCC[P+](CC)(CCCC)CCCC [[P4442][DEP], Tributyl(ethyl)phosphonium diethyl phosphate] | – | – | IL's solubility in base oil ([1]; OSP-32): >5% wt. %; IL's solubility in base oil ([1]; PAG (50-HB-170)): >5% wt. %; Number of surviving Daphnia (Ceriodaphnia dubia; Ceriodaphnia dubia): 10; Survival rate of Daphnia (Ceriodaphnia dubia; Ceriodaphnia dubia): > 70%; Mortality / survival of Daphnia, in words (Ceriodaphnia dubia): did not cause any mortality
CCCCOP(=O)(O)OCCCC.CN1CCCCC1 [[NMPPR] [DBP]] | 70-90% | – | –
CCCCOP(=O)(O)OCCCC.CN1CCOCC1 [[NMM] [DBP]] | 70-90% | – | –
CCCCOP(=O)([O-])OCCCC.CCCC[N+](C)(CCCC)CCCC [[N4441] [DBP]] | > 70% | – | –
CCCCOP(=O)(O)OCCCC.CN1CCOCC1 [[NMM][DBP]] | > 70% | – | –
CCCCOP(=O)(O)OCCCC.CN1CCCCC1 [[NMPPR][DBP]] | > 70% | – | –
Tetraoctylammonium octadecanoate [[N8888][C17H35COO]] | – | 0 | Mortality / survival of Daphnia, in words (Ceriodaphnia dubia): No Daphnia survived for three days
CCCCCCCCN(CCCCCCCC)CCCCCCCC.CCCCOP(=O)(O)OCCCC [[N888H][DBP]] | 0% | 0 | –
Trioctylammonium di(2-ethylhexyl)phosphate [[N888H][DEHP], reference compound] | – | 0 | –
CCCCCCN(CCCCCC)CCCCCC.CCCCOP(=O)(O)OCCCC [[N666H][DBP]] | 10% | – | –
Tetraoctylphosphonium bis(2-ethylhexyl) phosphate [[P8888][DEHP], reference compound] | – | 0 | Time of exposure after which all Daphnia were killed (Ceriodaphnia dubia): one
